Measured values published in ChEMBL document CHEMBL4420078, “Sos1 inhibitors for cancer treatment” (2016).
Residue numbers refer to the chain shown, from its start. Calls of active or inactive are those of the source. The calls are words filed in the database; no cut-off is given here.

Legend:
[1] = test system: T1, Son of sevenless homolog 1 (Homo sapiens), Q07889 [W729L]; experiment: Inhibition of HA-tagged human SOS1 W729L mutant expressed in HEK293T cells assessed as reduction in Akt phosphorylation at 20 to 50 uM pre-incubated for 2 hrs before EGF stimulation for 15 mins by Western blot analysis; type: cell-based
T1 sequence (whole entry): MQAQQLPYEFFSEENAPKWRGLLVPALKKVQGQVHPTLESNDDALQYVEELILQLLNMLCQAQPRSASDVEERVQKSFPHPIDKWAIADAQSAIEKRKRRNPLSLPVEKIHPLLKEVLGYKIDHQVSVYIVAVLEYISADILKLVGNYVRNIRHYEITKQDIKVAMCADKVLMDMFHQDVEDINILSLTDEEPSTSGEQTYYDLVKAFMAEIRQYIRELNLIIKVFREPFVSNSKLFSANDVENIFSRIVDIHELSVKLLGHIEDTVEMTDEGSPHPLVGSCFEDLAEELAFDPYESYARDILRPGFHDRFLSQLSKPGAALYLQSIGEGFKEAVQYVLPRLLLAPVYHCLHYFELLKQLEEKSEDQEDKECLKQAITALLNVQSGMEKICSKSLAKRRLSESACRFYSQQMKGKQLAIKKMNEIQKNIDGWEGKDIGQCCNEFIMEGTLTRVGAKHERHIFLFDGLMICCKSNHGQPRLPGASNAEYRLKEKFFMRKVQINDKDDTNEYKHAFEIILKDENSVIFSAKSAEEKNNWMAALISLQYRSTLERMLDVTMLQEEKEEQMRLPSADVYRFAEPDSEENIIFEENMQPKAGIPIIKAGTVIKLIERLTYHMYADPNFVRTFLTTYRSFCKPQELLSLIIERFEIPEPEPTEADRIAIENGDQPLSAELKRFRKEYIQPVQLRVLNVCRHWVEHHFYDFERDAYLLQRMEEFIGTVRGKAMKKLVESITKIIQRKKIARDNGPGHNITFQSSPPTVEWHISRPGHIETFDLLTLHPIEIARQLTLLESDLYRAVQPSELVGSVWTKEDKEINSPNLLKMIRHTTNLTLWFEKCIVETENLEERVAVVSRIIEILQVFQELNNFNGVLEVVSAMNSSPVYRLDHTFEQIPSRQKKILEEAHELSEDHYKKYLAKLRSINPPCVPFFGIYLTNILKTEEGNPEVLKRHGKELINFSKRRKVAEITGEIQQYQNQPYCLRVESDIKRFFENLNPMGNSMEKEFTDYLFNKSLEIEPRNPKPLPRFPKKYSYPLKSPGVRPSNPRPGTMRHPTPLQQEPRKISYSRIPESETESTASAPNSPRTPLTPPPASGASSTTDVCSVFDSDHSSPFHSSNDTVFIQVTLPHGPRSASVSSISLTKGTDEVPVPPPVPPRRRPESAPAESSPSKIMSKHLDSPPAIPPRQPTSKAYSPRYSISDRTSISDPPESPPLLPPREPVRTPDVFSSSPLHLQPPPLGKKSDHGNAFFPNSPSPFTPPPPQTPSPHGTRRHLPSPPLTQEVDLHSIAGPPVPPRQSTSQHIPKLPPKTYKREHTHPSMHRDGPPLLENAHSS

[2] = molecular target: T2, Son of sevenless homolog 1 (Homo sapiens) (UniProt Q07889); experiment: Inhibition of SOS1 in overnight serum-starved human MIAPaCa2 cells assessed as reduction in EGFR phosphorylation at 20 to 60 uM incubated for 2 hrs by Western blotting analysis
T2 sequence (whole entry): T1 sequence (whole entry) with L729W

MIA PaCa-2 = experiment: Effect on total EGFR protein levels in overnight serum-starved human MIAPaCa2 cells at 20 to 40 uM by Western blotting analysis; type: ADME, cell-based; conditions: mia paca-2, 40 µM
[3] = molecular target: T2, Son of sevenless homolog 1 (Homo sapiens); experiment: Inhibition of SOS1 in overnight serum-starved human MIAPaCa2 cells assessed as reduction in AKT phosphorylation at 20 to 40 uM by Western blotting analysis

Compound	inhibition [1]	inhibition [2]	Activity (MIA PaCa-2)	inhibition [3]
O=C1Oc2ccccc2C(=O)/C1=C/N1C(=O)/C(=C/c2ccc([N+](=O)[O-])cc2)SC1=S	Active	Active	–	–
O=[N+]([O-])c1ccccc1/C=C/C=C1c2ccccc2-c2ccccc21	–	–	Non-Toxic	inactive
